Laboratory results published in patent US11679168B2, “Caspase-3-triggered molecular self-assembling PET probes and uses thereof” (The Board of Trustees of the Leland Stanford Junior …, priority 2018, dated 2023).

Experiments:
[1] = Stability of [18F]-C-SNAT4 in human serum (HPLC); format: in vitro ADME; conditions: 37° C., over 2 h incubation
Procedure: FIG. 10 illustrates serum stability of [^18F]-C-SNAT4 in human serum. [^18F]-C-SNAT4 was incubated in serum at 37° C. and analyzed by HPLC.
At 24 h post treatment, mixture tracer of [^19F]-C-SNAT4 was injected with [^18F]-C-SNAT4 (mixture ratio at 1:200) through the tail vein for PET imaging (FIG. 24A-24C). For treated animal, tumor uptake of mixture tracer [^18F]/[^19F]-C-SNAT4 and [^18F]-C-SNAT4 were 2.9±0.3% ID/cc and 1.7±0.1% ID/cc, respectively at 85 min post injection. There was 1.7-fold increase of radioactivity in the mixture-treated mice. Overall, the uptake of [^18F]-C-SNAT4 was increased both in radiation and drug-treated tumors. In contrast, the tumor uptake of [^18F]/[^19F]-C-SNAT4 (ratio at 1:200) and [^18F]/[^19F]-C-SNAT4 (ratio at 1:80) in untreated tumor was 0.5±0.2% ID/cc and 0.3±0.2% ID/cc, respectively at 85 min after injection (FIG. 25A-25C), followed by a rapid signal decay back to baseline within a few minutes. There were no changes compared to the uptake of [^18F]-C-SNAT4 (0.4±0.1% ID/cc). […] The sample was centrifuged at 13,400 g for 10 min and […] of the resultant supernatant was diluted with […] of water and analyzed on HPLC. % intact tracer was calculated as %=(peak area for tracer/total peak area on the HPLC chromatogram)×100.

[2] = system: H460 cells; experiment: Radiotracer uptake in H460 cells; format: cell-based, human
Procedure: (§1) Temporal changes in cell-associated radioactivity in drug-treated cells or vehicle cells were measured with [18F]-C-SNAT4. Data are means±SD (n=3 per group). *, P<0.05; **, P<0.01; ***, P<0.005; *****, P<0.0001.
FIG. 22 illustrates that a mixture strategy enhances [^18F]-C-SNAT4 uptake in radiation (a single dose at 10 Gy) treated cells and vehicle human non-small cell lung cancer H460 cells. 40 μCi of mixture tracer [^18F]/[^19F]-C-SNAT4 (at ratio of 1:80 or 1:200) or 40 μCi [^18F]-C-SNAT4 were incubated in cells for 1 hour at 24 h post-IR treatment and radioactivity of [^18F] was measured using γ-counter. Data are means±SD (n=3 each group). *, P<0.05; **, P<0.01; ***, P<0.001.
(§2) Radiotracer uptake in cells: H460 and H1299 cells (2×10^5) were plated in 6-well cell culture plates over night before [^18F]-C-SNAT4 uptake analysis. […] After 24 h treatment, fresh, prewarmed RPMI Medium 1640 containing 1.48 MBq (40 μCi) [^18F]-C-SNAT4 was added to individual wells (1 ml/well; 13.3 pmol). At post 10, 30, 60 min, medium was removed, cells were lifted by trypsinization, and washed three-times with cold PBS. Radioactivity contained in cell pellets was measured using a gamma counter, with counts normalized to total protein concentration as determined by cell digestion using RIPA buffer followed by protein quantitation by the Bradford method. The final radiotracer [^18F]-C-SNAT4 uptake concentration was expressed as μM of % uptake/mg protein. Results were normalized to a vehicle control (PBS for [^18F]-C-SNAT4 experiments at different time-points) which was washed.

[3] = system: H1299 cells; experiment: Radiotracer uptake in H1299 cells; format: cell-based, human
Procedure: as §1, §2

In the case of `CCSSCC(NC(=O)C(CC(=O)O)NC(=O)C(NC(=O)C(CCC(=O)O)NC(=O)C(CC(=O)O)NC(C)=O)C(C)C)C(=O)NCC(=O)NC(Cc1cn(CCOCCOCCOCC[18F])nn1)C(=O)NCc1ccc(C(=O)NCCCOc2cnc(C#N)nc2)cc1` (stereo not shown) [[^18F]-C-SNAT4], the “percentage of [18F]-C-SNAT4 remained” value [1] is reported as 77.5%, the “uptake of high dose-treated cells relative to control cells” value ([2]; H460, 10 min post incubation) is reported as 5.8 fold and the “uptake of low dose-treated cells relative to control cells” value ([2]; H460, 60 min post incubation) is reported as 2.4 fold. For the same molecule, the cell uptake ([2]; IR-treated (10 Gy, 24 h) H460, hot tracer only, 1 h) was 3.9±0.4 % uptake/mg protein, the cell uptake ([2]; cisplatin high dose (13.5 μM, 24 h) treated H460, 10 min post incubation) was 2.3 % radioactivity/mg protein and the cell uptake ([2]; cisplatin low dose (4.5 μM, 24 h) treated H460, 10 min) was 0.7±0.1 % uptake/mg protein. For the same molecule, the cell uptake ([2]; cisplatin low dose (4.5 μM, 24 h) treated H460, 60 min) was 1.45±0.11 % radioactivity/mg protein, the cell uptake ([2]; control H460 cells of high dose experiment, 10 min post incubation) was 0.4±0.1 % uptake/mg protein and the cell uptake ([2]; non-treated H460, hot tracer only) was 2.8±0.3 % uptake/mg protein. For the same molecule, the cell uptake ([2]; untreated H460, 10 min) was 0.5±0.1 % radioactivity/mg protein, the cell uptake ([2]; untreated H460, 60 min) was 0.4 % uptake/mg protein and the “difference in uptake, drug-treated versus untreated” value ([3]; H1299, high dose, 60 min) was “no difference”. The cell uptake ([3]; cisplatin high dose (13.5 μM, 24 h) treated H1299, 30 min post incubation) was 4.0±0.3 % radioactivity/mg protein, the cell uptake ([3]; cisplatin low dose (4.5 μM, 24 h) treated H1299, 60 min) was 0.3±0.1 % uptake/mg protein and the cell uptake ([3]; control group H1299 (high dose experiment), 30 min post incubation) was 2.5±0.6 % radioactivity/mg protein. The cell uptake ([3]; naïve H1299 (low dose experiment), 60 min) was 0.2±0.1 % uptake/mg protein.
